The term IC50 denotes the concentration needed to halve the response being measured. As a reminder, the EC50 is the concentration needed to bring the measured effect to its halfway point.

One data set concerns the target T1, CCR2 (Homo sapiens, UniProt P41597).
T1 construct: endogenous in cells; host or cells: monocytes within PBMCs from 5 HIV+ and 5 HIV- subjects
T1 sequence (P41597 1-360 isoform P41597-2): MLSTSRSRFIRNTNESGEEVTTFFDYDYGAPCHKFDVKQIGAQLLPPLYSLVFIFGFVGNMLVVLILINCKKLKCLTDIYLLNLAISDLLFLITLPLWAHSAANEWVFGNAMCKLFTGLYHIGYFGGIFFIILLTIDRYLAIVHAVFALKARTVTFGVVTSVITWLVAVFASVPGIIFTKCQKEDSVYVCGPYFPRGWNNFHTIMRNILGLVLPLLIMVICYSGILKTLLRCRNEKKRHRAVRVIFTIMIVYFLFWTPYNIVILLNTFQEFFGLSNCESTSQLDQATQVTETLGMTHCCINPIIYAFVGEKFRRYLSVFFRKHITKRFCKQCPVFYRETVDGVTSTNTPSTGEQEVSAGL
The data set is described as follows: CCR2 receptor occupancy / internalization in PBMCs (monocytes) by flow cytometry. The class given is cell-based. On the procedure: (§1) The capacity of each drug to inhibit CCR5 or CCR2 internalization was evaluated. Cell-surface expression of CCR5 and CCR2 was assessed by flow cytometry, and fluorescence values were converted into molecules of equivalent soluble fluorescence (MESF).
Background: In flow cytometry, cells or beads pass a laser one at a time.

For data set [1], the system named is HIV-1. The data set is described as follows: Study 202: virologic response (plasma HIV-1 RNA <50 copies/mL), Snapshot algorithm, ITT. The class given is in vivo, human. As to conditions: Week 24; EFV arm. The source says:
The primary efficacy endpoint was the percentage of subjects with plasma HIV-1 RNA <50 copies/mL at Week 24 (using the FDA Snapshot algorithm and the ITT population).

Data set [2] in a line: APRI and FIB-4 fibrosis scores, post-hoc analysis of Study 202. It is filed as in vivo, human. On the procedure: Change in score category from baseline (BL) to Weeks 24 and 48 was assessed in patients with non-missing data. Correlations between changes from BL in APRI and FIB-4 scores, and MCP-1 (CCR2 ligand) and sCD14 (inflammatory biomarker) levels were evaluated.
For data set [3], the system named is HIV-1. Put plainly: Study 202: virologic response (plasma HIV-1 RNA <50 copies/mL), Snapshot algorithm, ITT. It is filed as in vivo, human. As to conditions: for virologic non-response, subgroup with high baseline viral load (≧100,000 copies/mL): EFV.
The next data set deals with HIV. Put plainly: Ex vivo intracellular HIV DNA (qPCR) in PBMCs of Study 202 subjects. Conditions: EFV 600 mg arm, Week 24. On the procedure: (§2) Early (strong-stop) and late (full-length) reverse transcript levels were measured by qPCR. […] P24 and viral load levels were measured by ELISA and qRT-PCR after 4 hours.
On the technique in general: Real-time PCR tracks product formation cycle by cycle.

Data set [4] can be described thus: Solubility of cenicriviroc mesylate. The class given is physicochemical.
A further data set addresses CCR5 (Homo sapiens, UniProt P51681). The data set is described as follows: CCR5 receptor occupancy / internalization in PBMCs by flow cytometry. It is filed as cell-based. The method, then: as §1
Data set [5] deals with HIV-1. The data set is described as follows: HIV-1 susceptibility to maraviroc, observed results. It is filed as cell-based. As to conditions: HIV-1 (n = 4).
In a further data set the test system is HIV-2 clinical isolates. The data set is described as follows: HIV-2 phenotypic susceptibility, ANRS PBMC method. The class given is cell-based. On the procedure:
All patients were infected with HIV-2 group A. Tropism was determined phenotypically using Ghost(3) cell lines expressing CD4 receptor and one HIV coreceptor, CCR5 or CXCR4. Both Ghost(3) cell lines carries a humanized green fluorescent protein (GFP) gene, under the control of a HIV-2 LTR. […] Ghost(3) cells were provided by the NIH AIDS Reagent program.
Briefly, cell-free HIV-2 positive supernatant was serially diluted (1, 10^−1, and 10^−2) and incubated with PBMC for viral titration. Viruses were tested at a 100 TCID50 titration. Cells were pre-incubated with cenicriviroc or maraviroc at an appropriate concentration 1 hour before viral infection. Six serial dilutions of the antiretroviral drug were tested in quadruplicate. On day 4, viral replication was assessed by a specific viral load assay (Generic HIV-2 viral load, Biocentric, France).

Another data set concerns CCR5-tropic HIV-1 BaL. Put plainly: PM-1 cells infected with HIV-1 BaL, supernatant P24 and viral load after 4 hours. The class given is cell-based. As to conditions: CVC 20 nM or MVC 50 nM. On the procedure:
as §2

Data set [6] has as its system HIV-1. As to conditions: HIV-1 (n = 43); Dorr et al. (2005); read-out: Median IC50; cited from earlier work.
Setting [7] is: HIV-2 isolate 10-046, group A, R5.
Setting [8] is: HIV-2 isolate 10-051, group A, R5.
Where [9] appears, read: HIV-2 isolate 10-055, group A, X4.
Setting [10] is: HIV-2 isolate 10-056, group A, R5.
The mark [11] stands for this setting: HIV-2 isolate 10-069, group A, Dual.
Setting [12] is: HIV-2 isolate 10-074, group A, R5.
[13] abbreviates: mixed R5/X4 HIV-2 clinical isolate, first of two.
[14] abbreviates: mixed R5/X4 HIV-2 clinical isolate, second of two.

Where a name gives a salt, the structure may show the parent alone. Read-outs that look alike come from different tables or passages of the source. Marks after values point to notes of the source that are not given here. Where only a bound is given, the exact number is not on record here.

CCR5, sequence (P51681 whole entry): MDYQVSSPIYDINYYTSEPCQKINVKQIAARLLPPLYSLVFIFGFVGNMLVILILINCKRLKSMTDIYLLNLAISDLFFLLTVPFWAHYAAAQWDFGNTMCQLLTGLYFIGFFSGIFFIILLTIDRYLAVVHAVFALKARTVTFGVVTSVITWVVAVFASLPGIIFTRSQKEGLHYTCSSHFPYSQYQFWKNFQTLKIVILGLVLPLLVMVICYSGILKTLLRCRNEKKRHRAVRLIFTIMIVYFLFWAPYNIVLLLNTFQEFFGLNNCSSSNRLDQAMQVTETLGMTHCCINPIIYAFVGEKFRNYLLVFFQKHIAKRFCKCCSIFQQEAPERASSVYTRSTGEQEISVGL

With `CSc1ccc(C(=O)N[C@@H]2CCCC[C@@H]2NC(=O)CNC(=O)c2cc(C(F)(F)F)ccc2NC(=O)NC(C)C)cc1` [BMS-22, reference compound], the “average concentration required to reach >80% receptor occupancy” value at CCR2 (CCR2, monocytes) came out at 18 nM. Besides, the “CCR2 cell-surface expression (in words)” value at CCR2 (in the absence of MCP-1, monocytes) is reported as “slightly increased CCR2 cell-surface expression”.

Turning to `O=C1Nc2ccc(Cl)cc2[C@@](C#CC2CC2)(C(F)(F)F)O1` [EFV, efavirenz, reference compound], in the data set with HIV-1 [1], the “Discontinued study due to AE or death” value is “(18%)” and the “HIV-1 RNA ≧50 but <400 copies/mL” value is reported as “(4%)^f”. Besides, in [2] (Baseline), the “patients in APRI category 0.5-1.5” value turned out to be 4%, the “patients in APRI category <0.5” value amounted to 96% and the “patients in FIB-4 category <1.45” value is on record as 100%. In [2] (Week 24), the “APRI: Decreased 1 category from baseline” value was found to be 5%, the “patients in APRI category <0.5” value came out at 100% and the “patients in FIB-4 category <1.45” value is listed as 100%. Further, in data set [2] (Week 48), the “APRI: Decreased 1 category from baseline” value is listed as 6%, the “patients in APRI category <0.5” value worked out at 100%, the “patients in FIB-4 category 1.45-3.25” value worked out at 6% and the “patients in FIB-4 category <1.45” value came to 94%. The “virologic non-response, subgroup with high baseline viral load (≧100,000 copies/mL)” value in the data set on HIV-1 [3] (Week 24) was determined as 25%. Further, the “virologic non-response, subgroup with high baseline viral load (≧100,000 copies/mL)” value with HIV-1 [3] (Week 48) turned out to be 25%. In addition, the “Discontinued study due to AE or death” value with HIV-1 [3] (Week 48, EFV arm) was “(21%)”. Also, the “Strong-stop HIV DNA decline (marker of HIV entry)” value in the data set on HIV was “no decline”.

For `CCCCOCCOc1ccc(-c2ccc3c(c2)C=C(C(=O)Nc2ccc([S@@+]([O-])Cc4cncn4CCC)cc2)CCCN3CC(C)C)cc1` [cenicriviroc mesylate, (S)-8-[4-(2-Butoxyethoxy)phenyl]-1-isobutyl-N-(4-{[(1-propyl-1H-imidazol-5-yl)methyl]sulfinyl}phenyl)-1,2,3,4-tetrahydro-1-benzazocine-5-carboxamide monomethanesulfonoate], the solubility entry in data set [4] (99.5% ethanol) is “sparingly soluble”; in data set [4] (acetonitrile, 1-octanol, tetrahydrofuran), “slightly soluble”; in data set [4] (aqueous solution at pH 3) it was “sparingly soluble”; in data set [4] (aqueous solution from pH 1 to 2), “freely soluble”; in data set [4] (aqueous solution from pH 4 to 13 and in water), “practically insoluble”; in [4] (ethyl acetate and diethylether), “practically insoluble”. The solubility result is reported as “freely soluble” in [4] (glacial acetic acid, methanol, benzyl alcohol, dimethylsulfoxide, N,N-dimethylformamide); “soluble” in data set [4] (pyridine and acetic anhydride).

For maraviroc [MVC], the entries for the “CCR5 receptor occupancy at saturation” value at CCR5 (CD4+ T cells) and on CCR5 (CD8+ T cells) were around 86% and around 87%, respectively. Besides, the “effective concentration at which saturation of CCR5 was reached” value at CCR5 (CD4+ T cells) and on CCR5 (CD8+ T cells) was 12.5 nM each time. Moreover, at CCR5 (in the absence of RANTES, PBMCs), the “cell-surface expression of CCR5 (in words)” value is “increased cell-surface expression of CCR5”. For the same compound, the “median MPI” value came out at 74% with HIV-1 [5]; 93% in the data set on HIV-2 clinical isolates (13 R5 HIV-2 clinical isolates); 93% with HIV-2 clinical isolates (13 R5 HIV-2 clinical isolates, listed as maraviroc). Further, the IC50 in the data set on HIV-1 [5] (read-out: Median IC50) is 2.4 nM; in the data set on HIV-2 clinical isolates (read-out: Median IC50, HIV-2 (n = 13), Observed Results) it was 0.8 nM; in the data set on HIV-1 [6], 0.4 nM. Moreover, the EC50 in the data set on HIV-2 clinical isolates (setting [7]) was 1.13 nM; in the data set on HIV-2 clinical isolates (setting [8]), 0.48 nM; in the data set on HIV-2 clinical isolates (setting [9]) it was above 1000 nM; with HIV-2 clinical isolates (setting [10]) it was 0.58 nM; with HIV-2 clinical isolates (setting [11]), above 1000 nM; in the data set on HIV-2 clinical isolates (setting [12]), 0.68 nM. The EC50 in the data set with HIV-2 clinical isolates (X4 HIV-2 clinical isolate) was above 1000 nM; with HIV-2 clinical isolates (setting [13]), 9.4 nM; in the data set with HIV-2 clinical isolates (setting [14]) it was above 1000 nM; in the data set on HIV-2 clinical isolates (read-out: median EC50, 13 R5 HIV-2 clinical isolates), 0.8 nM. The “MPI (%)” value stood at 93% in the data set with HIV-2 clinical isolates (setting [7]); 82% with HIV-2 clinical isolates (setting [8]); 0% in the data set on HIV-2 clinical isolates (setting [9]); 90% in the data set with HIV-2 clinical isolates (setting [10]); 12% in the data set on HIV-2 clinical isolates (setting [11]); 100% in the data set on HIV-2 clinical isolates (setting [12]). The MPI in the data set with HIV-2 clinical isolates (X4 HIV-2 clinical isolate) is recorded as 0%; in the data set with HIV-2 clinical isolates (setting [13]) it was 55%; in the data set with HIV-2 clinical isolates (setting [14]), 12%. Further, the “supernatant P24” value with CCR5-tropic HIV-1 BaL (0 hrs (baseline)) came to 506 ng/mL; with CCR5-tropic HIV-1 BaL (4 hrs), 520 ng/mL. In addition, the figures for the viral load with CCR5-tropic HIV-1 BaL (0 hrs) and in the data set with CCR5-tropic HIV-1 BaL (4 hrs) were 1.19×10^10 copies/ml and 1.67×10^10 copies/ml, respectively.
